Test results taken from ChEMBL document CHEMBL5344419, “Synthesis and characterization of the N-succinyl-l,l-diaminopimelic acid desuccinylase (DapE) alternate substrate analog N,N-dimethyl-l,l-SDAP” (Bioorg Med Chem, 2023).
Activity calls are given as the source filed them. The rule behind the calls is not given here.

T1: Succinyl-diaminopimelate desuccinylase (Haemophilus influenzae (strain ATCC 51907 / DSM 11121 / KW20 / Rd), UniProt P44514)
T1 sequence (P44514 whole entry): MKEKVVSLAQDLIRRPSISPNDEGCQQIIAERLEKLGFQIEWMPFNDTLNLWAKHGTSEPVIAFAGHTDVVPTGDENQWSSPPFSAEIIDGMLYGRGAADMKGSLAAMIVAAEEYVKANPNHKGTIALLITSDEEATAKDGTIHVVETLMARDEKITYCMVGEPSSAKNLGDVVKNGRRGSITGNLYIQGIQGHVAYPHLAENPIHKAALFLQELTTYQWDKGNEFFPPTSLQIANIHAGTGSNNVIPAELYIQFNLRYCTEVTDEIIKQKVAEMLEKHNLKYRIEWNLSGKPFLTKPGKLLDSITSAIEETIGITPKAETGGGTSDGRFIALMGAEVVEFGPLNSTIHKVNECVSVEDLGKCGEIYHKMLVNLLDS

T2: Succinyl-diaminopimelate desuccinylase (Haemophilus influenzae (strain ATCC 51907 / DSM 11121 / KW20 / Rd)) (UniProt P44514)
T2 sequence (whole entry): T1 sequence (P44514 whole entry)

B1: Succinyl-diaminopimelate desuccinylase (Haemophilus influenzae (strain ATCC 51907 / DSM 11121 / KW20 / Rd)), P44514 (protein)
chain: T1 sequence (P44514 whole entry)

Experiments:
[1] = biological target: T1, Succinyl-diaminopimelate desuccinylase; assay: Inhibition of Haemophilus influenzae DapE at 80 degreeC incubated for 15 mins by ninhydrin based assay
[2] = biological target: T1, Succinyl-diaminopimelate desuccinylase; assay: Inhibition of Haemophilus influenzae DapE at 100 degreeC incubated for 10 mins by ninhydrin based assay
[3] = biological target: T2, Succinyl-diaminopimelate desuccinylase (Haemophilus influenzae (strain ATCC 51907 / DSM 11121 / KW20 / Rd)); assay: Thermal stabilization of Haemophilus influenzae DapE assessed as increase in second melting temperature by SYPRO orange dye based thermal shift assay
[4] = biological target: T1, Succinyl-diaminopimelate desuccinylase; assay: Binding affinity to Haemophilus influenzae DapE assessed as dissociation constant
[5] = biological target: T2, Succinyl-diaminopimelate desuccinylase (Haemophilus influenzae (strain ATCC 51907 / DSM 11121 / KW20 / Rd)); assay: Thermal stabilization of Haemophilus influenzae DapE assessed as increase in first melting temperature by SYPRO orange dye based thermal shift assay
[6] = substrate: CN(C)[C@@H](CCC[C@H](NC(=O)CCC(=O)O)C(=O)O)C(=O)O; assay: (§1) Substrate activity at Haemophilus influenzae DapE assessed as Kcat/Km incubated for 10 mins by ninhydrin based assay
[7] = substrate: CN[C@@H](CCC[C@H](NC(=O)CCC(=O)O)C(=O)O)C(=O)O; assay: as §1
[8] = substrate: CN(C)[C@@H](CCC[C@H](NC(=O)CCC(=O)O)C(=O)O)C(=O)O; assay: Substrate activity at Haemophilus influenzae DapE assessed as Kcat/Km at 80 DegreeC incubated for 15 mins by ninhydrin based assay
[9] = substrate: CN(C)[C@@H](CCC[C@H](NC(=O)CCC(=O)O)C(=O)O)C(=O)O; assay: Substrate activity at Haemophilus influenzae DapE assessed as Kcat/Km at 100 DegreeC incubated for 10 mins by ninhydrin assay

Row | Molecule | IC50 [1] [µM] | IC50 [2] [µM] | ΔTm [3] [°C] | Kd [4] [µM] | Activity [5] | kcat/Km [6] | kcat/Km [7] | kcat/Km [8] | kcat/Km [9]
1 | CN(C)[C@@H](CCC[C@H](NC(=O)CCC(=O)O)C(=O)O)C(=O)O | 0.89 | 1.5 | 3 | 1320 | Active | – | – | – | –
2 | CN[C@@H](CCC[C@H](NC(=O)CCC(=O)O)C(=O)O)C(=O)O | – | – | – | – | Active | – | – | – | –
3 | B1 | – | – | – | – | – | 3.49 10^5/M/s | 4.4 10^5/M/s | 3.49 10^5/M/s | 4.03 10^5/M/s
